# Measurements published in US20250230193A1, “CYCLIC COMPOUND HAVING SELECTIVE KRAS INHIBITORY EFFECT ON HRAS AND NRAS” (CHUGAI SEIYAKU KABUSHIKI KAISHA, priority 2022, published 2025).
# Where a SMILES comes first, the peptide text is derived from it. Bridges are numbered along the chain shown (N, C = ends). [ ]: non-standard residue; d: D form. The star is where a group is joined. hPhe(3-Cl-4-CF3) = N[C@@H](CCc1ccc(C(F)(F)F)c(Cl)c1)C(=O)O; NPrPhe(4-CF3) = CCCN[C@@H](Cc1ccc(C(F)(F)F)cc1)C(=O)O; Piperazinyl(4-(3-oxetanyl)) = C1OCC1N1CCN(*)CC1; NMeGly(cPent) = CN[C@H](C(=O)O)C1CCCC1; Hyp = O=C(O)[C@@H]1C[C@@H](O)CN1; NMeD = CN[C@@H](CC(=O)O)C(=O)O; NMeL = CN[C@@H](CC(C)C)C(=O)O; Morpholide = C1CN(*)CCO1; NMeA = CN[C@@H](C)C(=O)O; Ac5c = NC1(C(=O)O)CCCC1; Aze = O=C(O)[C@@H]1CCN1; Sar = CNCC(=O)O
# Experiments:
# [1] = target: GDP-bound NRAS wild-type protein (Homo sapiens, UniProt P01111); test: Binding to NRAS by surface plasmon resonance (SPR), Single Cycle Kinetics; settings: SPR
# Sequence of GDP-bound NRAS wild-type protein (P01111 whole entry): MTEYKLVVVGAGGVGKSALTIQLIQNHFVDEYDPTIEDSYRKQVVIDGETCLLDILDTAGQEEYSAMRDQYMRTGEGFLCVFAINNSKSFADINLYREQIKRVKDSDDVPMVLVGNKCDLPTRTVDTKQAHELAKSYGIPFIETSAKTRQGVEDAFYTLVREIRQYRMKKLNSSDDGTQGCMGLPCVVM
# [2] = target: GDP-bound HRAS wild-type protein (Homo sapiens, UniProt P01112); test: Binding to HRAS by surface plasmon resonance (SPR), Single Cycle Kinetics; settings: SPR
# Sequence of GDP-bound HRAS wild-type protein (P01112 whole entry): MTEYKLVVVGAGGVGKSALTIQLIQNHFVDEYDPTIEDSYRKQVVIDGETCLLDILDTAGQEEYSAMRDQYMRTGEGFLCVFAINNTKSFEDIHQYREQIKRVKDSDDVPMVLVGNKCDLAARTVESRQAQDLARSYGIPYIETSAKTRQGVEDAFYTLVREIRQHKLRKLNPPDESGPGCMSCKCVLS
# [3] = KD ratio, GDP-bound NRAS wild-type vs GDP-bound KRAS wild-type
# [4] = KD ratio, GDP-bound HRAS wild-type vs GDP-bound KRAS wild-type
smiles,measurement,setting,value
CCO[C@@H]1C[C@H]2C(=O)NC3(CC(C)(C)C3)C(=O)N(C)[C@@H](C(CC)CC)C(=O)N(C)[C@H](C(=O)N(C)C)CC(=O)N(C)[C@@H](CC3CCC3)C(=O)N[C@@H]([C@@H](C)CC)C(=O)N(C)CC(=O)N(C)[C@H]3C/C=C\CCN(C3=O)[C@@H](Cc3ccc(C)cc3)C(=O)N(C)CC(=O)N[C@@H](CCc3ccc(Cl)c(Cl)c3)C(=O)N2C1 [PP2120],NRAS/KRAS (ratio of KD value with respect to NRAS to KD value with respect to KRAS),[1]; GDP-bound NRAS wild-type vs GDP-bound KRAS wild-type,AA (a compound having 20 or more is denoted as AA)
same,HRAS/KRAS (ratio of KD value with respect to HRAS to KD value with respect to KRAS),[2]; GDP-bound HRAS wild-type vs GDP-bound KRAS wild-type,A (a compound having 10 or more and less than 20 is denoted as A)
CC[C@H](C)[C@@H]1NC(=O)[C@H](CC(C)C)N(C)C(=O)C[C@@H](C(=O)N2CCOCC2)N(C)C(=O)[C@H](C2CCCC2)N(C)C(=O)C2(CCC2)NC(=O)[C@@H]2[C@@H](O)CCN2C(=O)[C@H](CCc2cc(F)c(C(F)(F)F)c(F)c2)NC(=O)CN(C)C(=O)[C@H](Cc2ccc(C(F)(F)F)cc2)N2CCCCC[C@@H](C2=O)N(C)C(=O)CN(C)C1=O [PP0872],NRAS/KRAS (ratio of KD value with respect to NRAS to KD value with respect to KRAS),[1]; [3],A (a compound having 10 or more and less than 20 is denoted as A)
same,HRAS/KRAS (ratio of KD value with respect to HRAS to KD value with respect to KRAS),[2]; [4],A (a compound having 10 or more and less than 20 is denoted as A)
CCO[C@@H]1C[C@H]2C(=O)NC3(CCC3)C(=O)N(C)[C@@H](C3CCCC3)C(=O)N(C)[C@H](C(=O)N(C)CC)CC(=O)N(C)[C@@H](C3CCC3)C(=O)N[C@@H]([C@@H](C)CC)C(=O)N(C)CC(=O)N(C)[C@H]3C/C=C\CCN(C3=O)[C@@H](Cc3ccc(C(F)(F)F)cc3)C(=O)N(C)CC(=O)N[C@@H](CCc3cc(F)c(C(F)(F)F)c(F)c3)C(=O)N2C1 [PP1996],NRAS/KRAS (ratio of KD value for NRAS to KD value for KRAS),[1]; [3],A (a compound having 10 or more and less than 20 is denoted as A)
same,HRAS/KRAS (ratio of KD value for HRAS to KD value for KRAS),[2]; [4],B (a compound having 3 or more and less than 10 is denoted as B)
CC[C@H](C)[C@@H]1NC(=O)[C@H](CC(C)C)N(C)C(=O)C[C@@H](C(=O)N2CCOCC2)N(C)C(=O)[C@H](C2CCCC2)N(C)C(=O)C2(CCC2)NC(=O)[C@@H]2CC(F)(F)CN2C(=O)[C@H](CCc2ccc(C(F)(F)F)c(Cl)c2)NC(=O)CN(C)C(=O)[C@H](Cc2ccc(F)cc2)N2CCCCC[C@@H](C2=O)N(C)C(=O)CN(C)C1=O [PP0969],NRAS/KRAS (ratio of KD value with respect to NRAS to KD value with respect to KRAS),[1]; [3],B (a compound having 3 or more and less than 10 is denoted as B)
same,HRAS/KRAS (ratio of KD value with respect to HRAS to KD value with respect to KRAS),[2]; [4],B (a compound having 3 or more and less than 10 is denoted as B)
CCCN1C(=O)[C@@H]2CCN2C(=O)[C@H](C)N(C)C(=O)[C@H]([C@@H](C)CC)NC(=O)[C@H](CC(C)C)N(C)C(=O)C[C@@H](C(=O)N2CCN(C3COC3)CC2)N(C)C(=O)[C@H](C2CCCC2)N(C)C(=O)C2(CCCC2)NC(=O)[C@@H]2CCCN2C(=O)[C@H](CCc2ccc(C(F)(F)F)c(Cl)c2)NC(=O)CN(C)C(=O)[C@@H]1Cc1ccc(C(F)(F)F)cc1 [PP0184] ([NMeL]I[NMeA][Aze][NPrPhe(4-CF3)][Sar][hPhe(3-Cl-4-CF3)]P[Ac5c][NMeGly(cPent)][NMeD]-{Piperazinyl(4-(3-oxetanyl))}; lactam N-11),NRAS/KRAS (ratio of KD for GDP-bound NRAS wild-type to KD for KRAS),[1]; KD ratio NRAS/KRAS,C (A compound having a KD ratio of 0.1 or more and less than 3 is denoted as C)
same,HRAS/KRAS (ratio of KD for GDP-bound HRAS wild-type to KD for KRAS),[2]; KD ratio HRAS/KRAS,B (a compound having 3 or more and less than 10 is denoted as B)
CC[C@H](C)[C@@H]1NC(=O)[C@H](CC(C)C)N(C)C(=O)C[C@@H](C(=O)N2CCOCC2)N(C)C(=O)[C@H](C2CCCC2)N(C)C(=O)C2(CCC2)NC(=O)[C@]2(C)CCCN2C(=O)[C@H](CCc2cc(F)c(C(F)(F)F)c(F)c2)NC(=O)CN(C)C(=O)[C@H](Cc2ccc(C(F)(F)F)cc2)N2CCCC[C@@H](C2=O)N(C)C(=O)CN(C)C1=O [PP0808],NRAS/KRAS (ratio of KD value with respect to GDP-bound NRAS wild-type protein to KD value with respect to KRAS),[1]; KD ratio NRAS/KRAS,B (a compound having 3 or more and less than 10 is denoted as B)
same,HRAS/KRAS (ratio of KD value with respect to GDP-bound HRAS wild-type protein to KD value with respect to KRAS),[2]; KD ratio HRAS/KRAS,B (a compound having 3 or more and less than 10 is denoted as B)
CCCN1C(=O)CN(C)C(=O)CN(C)C(=O)[C@H]([C@@H](C)CC)NC(=O)[C@H](CC(C)C)N(C)C(=O)C[C@@H](C(=O)N2CCOCC2)N(C)C(=O)[C@H](C2CCCC2)N(C)C(=O)C2(CCCC2)NC(=O)[C@@H]2C[C@@H](O)CN2C(=O)[C@H](CCc2ccc(C(F)(F)F)c(Cl)c2)NC(=O)CN(C)C(=O)[C@@H]1Cc1ccc(C(F)(F)F)cc1 [PP0241] ([NMeL]I[Sar][Sar][NPrPhe(4-CF3)][Sar][hPhe(3-Cl-4-CF3)][Hyp][Ac5c][NMeGly(cPent)][NMeD]-Morpholide; lactam N-11),NRAS/KRAS (ratio of KD for GDP-bound NRAS wild-type to KD for KRAS),[1]; KD ratio NRAS/KRAS,B (a compound having 3 or more and less than 10 is denoted as B)
same,HRAS/KRAS (ratio of KD for GDP-bound HRAS wild-type to KD for KRAS),[2]; KD ratio HRAS/KRAS,C (A compound having a KD ratio of 0.1 or more and less than 3 is denoted as C)
